Consider 21 molecules from patent publication US11339165B2, “Pyrazolopyrimidines having activity against the respiratory syncytial virus (RSV)” (priority 2017, dated 2022).

For orientation: EC50 means the concentration at which the effect is half-maximal. The melting point is the temperature, or range, at which the solid turns liquid. As usually defined, the CC50 is the concentration giving 50% cytotoxicity. A higher CC50 goes with better tolerance by the cells.

In one series the test system is rgRSV224 virus. Description: Antiviral activity: rgRSV224 (GFP) replication in HeLa cells. The series is classed as cell-based, respiratory syncytial virus (RSV). Conditions: human respiratory syncytial virus, HeLa, 72 h, read-out: RSV HELA EC50 (μM), rgRSV224 virus (MOI=1), HeLa cells, GFP expression three days post-virus exposure.
The nature of the next series: in vitro. Conditions: human, TOX HELA CC50 (μM).

In turn, `C[C@@H]1c2ccccc2CCN1C(=O)c1cc(C2CC2)n2nc(-c3ccc(N4CCC5(COC5)C4)cc3F)cc2n1` [Compound 5, (1R)-2-[7-Cyclopropyl-2-(2-fluoro-4-{2-oxa-6-azaspiro[3.4]octan-6-yl}phenyl)pyrazolo[1,5-a]pyrimidine-5-carbonyl]-1-methyl-1,2,3,4-tetrahydroisoquinoline] displayed a melting point of 220.25 °C. Further, the concentration giving a half-maximal response (EC50) with rgRSV224 virus is 0.118 µM. The CC50 at 3 days in “in vitro” was over 25 µM.
Molecule `C[C@@H]1c2ccccc2CCN1C(=O)c1cc(C2CC2)n2nc(-c3ccc(N4CC[C@H](C(N)=O)[C@H]4C)cc3F)cc2n1` (single isomer, unassigned) [Compound 81, (2*R,3*S)-1-(4-{7-Cyclopropyl-5-[(1R)-1-methyl-1,2,3,4-tetrahydroisoquinoline-2-carbonyl]pyrazolo[1,5-a]pyrimidin-2-yl}-3-fluorophenyl)-2-methylpyrrolidine-3-carboxamide] returned a melting point of 271.19 °C. Moreover, the EC50 in the series with rgRSV224 virus stood at 0.099 µM. The molecule also returned a CC50 at 3 days in “in vitro” of 38.4 µM.
`C[C@@H]1c2ccccc2CCN1C(=O)c1cc(C2CC2)n2nc(-c3ccc(N4CC(C(N)=O)C4)cc3F)cc2n1` [Compound 91, 1-(4-{7-Cyclopropyl-5-[(1R)-1-methyl-1,2,3,4-tetrahydroisoquinoline-2-carbonyl]pyrazolo[1,5-a]pyrimidin-2-yl}-3-fluorophenyl)azetidine-3-carboxamide]: the melting point stood at 236.01 °C. The EC50 in the series with rgRSV224 virus came out at 0.036 µM. The same molecule registered a CC50 at 3 days in the series “in vitro” of 28.3 µM.
With `CNC(=O)C1CCN(c2ccc(-c3cc4nc(C(=O)N5CCc6ccccc6[C@H]5C)cc(C5CC5)n4n3)c(F)c2)CC1` [Compound 72, 1-(4-{7-Cyclopropyl-5-[(1R)-1-methyl-1,2,3,4-tetrahydroisoquinoline-2-carbonyl]-pyrazolo[1,5-a]pyrimidin-2-yl}-3-fluorophenyl)-N-methylpiperidine-4-carboxamide], the melting point was found to be 252.4 °C. Moreover, in the series with rgRSV224 virus, the EC50 worked out at 0.087 µM. The half-maximal cytotoxic concentration (CC50) at 3 days in the series “in vitro” was over 100 µM.
With `C[C@@H]1c2ccccc2CCN1C(=O)c1cc(C2CC2)n2nc(-c3ccc(N4CCCC(O)C4)cc3F)cc2n1` (stereo partly drawn) [Compound 75, 1-(4-{7-Cyclopropyl-5-[(1R)-1-methyl-1,2,3,4-tetrahydroisoquinoline-2-carbonyl]-pyrazolo[1,5-a]pyrimidin-2-yl}-3-fluorophenyl)piperidin-3-ol], the melting point came to 197.51 °C. In the series on rgRSV224 virus, the EC50 was found to be 0.076 µM. Further, the CC50 at 3 days in “in vitro” was over 100 µM.
For `C[C@@H]1c2cc(F)ccc2CCN1C(=O)c1cc(C2CC2)n2nc(-c3ccc(N4CC[C@H](C(N)=O)C4)cc3F)cc2n1` (single isomer, unassigned) [Compound 47, (3S)-1-(4-{7-Cyclopropyl-5-[(1*R)-7-fluoro-1-methyl-1,2,3,4-tetrahydroisoquinoline-2-carbonyl]pyrazolo[1,5-a]pyrimidin-2-yl}-3-fluorophenyl)pyrrolidine-3-carboxamide] the same measures were 245.69 °C, 0.009 µM and 41.5 µM.
For `C[C@@H]1c2ccccc2CCN1C(=O)c1cc(-c2cncc(F)c2)n2nc(-c3ccc(N4CC[C@H](C(N)=O)C4)cc3F)cc2n1` [Compound 90, (3S)-1-{3-Fluoro-4-[7-(5-fluoropyridin-3-yl)-5-[(1R)-1-methyl-1,2,3,4-tetrahydro-isoquinoline-2-carbonyl]pyrazolo[1,5-a]pyrimidin-2-yl]phenyl}pyrrolidine-3-carboxamide], the melting point came to 269.08 °C. Moreover, the EC50 with rgRSV224 virus was 0.046 µM.
In the case of `C[C@@H]1c2ccccc2CCN1C(=O)c1cc(C2CC2)n2nc(-c3ccc(N4CC[C@@H](O)C4)cc3F)cc2n1` [Compound 13, (3R)-1-(4-{7-Cyclopropyl-5-[(1R)-1-methyl-1,2,3,4-tetrahydroisoquinoline-2-carbonyl]pyrazolo[1,5-a]pyrimidin-2-yl}-3-fluorophenyl)pyrrolidin-3-ol], the EC50 in the series with rgRSV224 virus was determined as 0.058 µM. In “in vitro”, the midpoint of cytotoxicity, the CC50 at 3 days, lay at 80.5 µM.
For `C[C@@H]1c2ccccc2CCN1C(=O)c1cc(-c2ccc(F)cc2)n2nc(-c3ccc(N4CC[C@H](C(N)=O)C4)cc3F)cc2n1` [Compound 60, (3S)-1-{3-Fluoro-4-[7-(4-fluorophenyl)-5-[(1R)-1-methyl-1,2,3,4-tetrahydroisoquinoline-2-carbonyl]pyrazolo[1,5-a]pyrimidin-2-yl]phenyl}pyrrolidine-3-carboxamide] the same measures were 0.029 µM and 41.3 µM.
For `CO[C@H]1CN(c2ccc(-c3cc4nc(C(=O)N5CCc6ccccc6[C@H]5C)cc(C5CC5)n4n3)c(F)c2)C[C@@H]1O` (stereo in doubt) [Compound 96, (7-cyclopropyl-2-(2-fluoro-4-((trans)-3-hydroxy-4-methoxypyrrolidin-1-yl)phenyl)pyrazolo[1,5-a]pyrimidin-5-yl)((R)-1-methyl-3,4-dihydroisoquinolin-2(1H)-yl)methanone] the same measures were 0.05 µM and 22.5 µM.
The matching figures for `C[C@@H]1c2ccccc2CCN1C(=O)c1cc(C2CC2)n2nc(-c3ccc(N4C[C@H](O)[C@H](O)[C@H]4CO)cc3F)cc2n1` [Compound 98]: 0.039 µM and 47.6 µM.
With `C[C@@H]1c2ccsc2CCN1C(=O)c1cc(C2CC2)n2nc(-c3ccc(N4CC[C@](C)(CC(N)=O)C4)cc3F)cc2n1` (single isomer, unassigned) [Compound 25, 2-[(3*R)-1-(4-{7-Cyclopropyl-5-[(4*R)-4-methyl-4,5,6,7-tetrahydro-thieno[3,2-c]pyridine-5-carbonyl]pyrazolo[1,5-a]pyrimidin-2-yl}-3-fluorophenyl)-3-methylpyrrolidin-3-yl]acetamide], the half-maximal effective concentration (EC50) with rgRSV224 virus is 0.023 µM. Further, the CC50 at 3 days in the series “in vitro” came to 29.6 µM.
For `C[C@@H]1c2ccccc2CCN1C(=O)c1cc(C2CC2)n2nc(-c3ncc(N4CC[C@H](C(N)=O)C4)nc3F)cc2n1` [Compound 88, (3S)-1-(5-{7-Cyclopropyl-5-[(1R)-1-methyl-1,2,3,4-tetrahydroisoquinoline-2-carbonyl]-pyrazolo[1,5-a]pyrimidin-2-yl}-6-fluoropyrazin-2-yl)pyrrolidine-3-carboxamide] the same measures were 0.017 µM and 47.6 µM.
The matching figures for `CC(=O)NS(=O)(=O)C1CCN(c2ccc(-c3cc4nc(C(=O)N5CCc6ccccc6[C@H]5C)cc(C5CC5)n4n3)c(F)c2)C1` (stereo partly drawn) [Compound 20, N-{[1-(4-{7-Cyclopropyl-5-[(1R)-1-methyl-1,2,3,4-tetrahydroisoquinoline-2-carbonyl]-pyrazolo[1,5-a]pyrimidin-2-yl}-3-fluorophenyl)pyrrolidin-3-yl]sulfonyl}acetamide]: 0.052 µM and 55.9 µM.
The matching figures for `C[C@@H]1c2ccccc2CCN1C(=O)c1cc(C2CC2)n2nc(-c3ccc(N4CC[C@H](c5nnn[nH]5)C4)cc3F)cc2n1` [Compound 3, (1R)-2-(7-Cyclopropyl-2-{2-fluoro-4-[(3S)-3-(1H-1,2,3,4-tetrazol-5-yl)pyrrolidin-1-yl]phenyl}pyrazolo[1,5-a]pyrimidine-5-carbonyl)-1-methyl-1,2,3,4-tetrahydroisoquinoline]: 0.063 µM and 43 µM.
For `C[C@@H]1c2ccccc2CCN1C(=O)c1cc(C2CC2)n2nc(-c3ccc(N4CC[C@@H](c5nnn[nH]5)C4)cc3F)cc2n1` [Compound 2, (1R)-2-(7-Cyclopropyl-2-{2-fluoro-4-[(3R)-3-(1H-1,2,3,4-tetrazol-5-yl)pyrrolidin-1-yl]phenyl}pyrazolo[1,5-a]pyrimidine-5-carbonyl)-1-methyl-1,2,3,4-tetrahydroisoquinoline], in the series with rgRSV224 virus, the EC50 stood at 0.056 µM. The CC50 at 3 days in “in vitro” came to 38.7 µM.
With `C[C@@H]1c2ccccc2CCN1C(=O)c1cc(C2CC2)n2nc(-c3ccc(N4CC[C@H](c5noc(=O)[nH]5)C4)cc3F)cc2n1` [Compound 4, 3-[(3S)-1-(4-{7-Cyclopropyl-5-[(1R)-1-methyl-1,2,3,4-tetrahydroisoquinoline-2-carbonyl]pyrazolo[1,5-a]pyrimidin-2-yl}-3-fluorophenyl)pyrrolidin-3-yl]-4,5-dihydro-1,2,4-oxadiazol-5-one], the EC50 in the series with rgRSV224 virus stood at 0.049 µM. The molecule also displayed a CC50 at 3 days in the series “in vitro” of 23 µM.
For the molecule `C[C@@H]1c2ccccc2CCN1C(=O)c1cc(C2CC2)n2nc(-c3ccc(N4CCC5(C4)CS(=O)(=O)C5)cc3F)cc2n1` [Compound 6], the EC50 in the series with rgRSV224 virus worked out at 0.098 µM. Moreover, the CC50 at 3 days in “in vitro” was over 100 µM.
The matching figures for `C[C@@H]1c2ccccc2CCN1C(=O)c1cc(C2CC2)n2nc(-c3ccc(N4CC[C@H](C(=O)NC#N)C4)cc3F)cc2n1` [Compound 39, (3S)—N-Cyano-1-(4-{7-cyclopropyl-5-[(1R)-1-methyl-1,2,3,4-tetrahydroisoquinoline-2-carbonyl]pyrazolo[1,5-a]pyrimidin-2-yl}-3-fluorophenyl)pyrrolidine-3-carboxamide]: 0.291 µM and 53.1 µM.
For `C[C@@H]1c2ccccc2CCN1C(=O)c1cc(C2CC2)n2nc(-c3ccc(N4CC[C@](C)(CC(N)=O)C4)cc3F)cc2n1` (single isomer, unassigned) [Compound 23, 2-[(3*R)-1-(4-{7-Cyclopropyl-5-[(1R)-1-methyl-1,2,3,4-tetrahydroisoquinoline-2-carbonyl]pyrazolo[1,5-a]pyrimidin-2-yl}-3-fluorophenyl)-3-methylpyrrolidin-3-yl]acetamide] the same measures were 0.032 µM and 30.3 µM.
In the case of `C[C@@H]1c2ccccc2CCN1C(=O)c1cc(C2CC2)n2nc(-c3ccc(N4CCCC(CC(N)=O)C4)cc3F)cc2n1` (stereo partly drawn) [Compound 71, 2-[1-(4-{7-Cyclopropyl-5-[(1R)-1-methyl-1,2,3,4-tetrahydroisoquinoline-2-carbonyl]-pyrazolo[1,5-a]pyrimidin-2-yl}-3-fluorophenyl)piperidin-3-yl]acetamide], the EC50 in the series with rgRSV224 virus was determined as 0.105 µM. In “in vitro”, this molecule displayed a CC50 at 3 days of 29.8 µM.
